# Test results: publication PMC7071032, “In Vitro Inhibition of Hsp90 Protein by Benzothiazoloquinazolinequinones Is Enhanced in The Presence of Ascorbate. A Preliminary In Vivo Antiproliferative Study” (Molecules, 2020)
# Read-outs that look alike come from different tables or passages of the source.
# Legend:
# [1] = test system: panel of cancer cells (T24, DU-145, MCF-7); test: MTT reduction assay, panel of cancer cells (means, ranges, selectivity index); format: cell-based, human; details: for IC50: Homo sapiens; for MSI: mean selective index: IC50 values of fibroblasts (AG 1523)/IC50 values of tumor cells (T24, DU-145, MCF-7)
# Procedure: (§1) As positive control, two well-known anticancer drugs, namely TAM and 5-FU, were also tested on these cell lines. […] Regarding 5-FU, it is a broad-spectrum chemotherapeutic drug used to treat a variety of malignancies. Particularly, it has a long history of use against bladder tumors.
# Such a selective index was calculated as the ratio between IC50 values of healthy cells/IC50 values in cancer cells.
# (§2) Cells were seeded into 96-well plates at a density of 10,000 cells/well for 24 h and then incubated for 48 h with or without the quinone derivatives. […] The IC50 values were determined using the GraphPad Prism software (San Diego, CA, USA). Further incubation procedures and optical density reading of colored solutions were performed according to Benites et al..
# [2] = test system: non-tumor fibroblasts AG 1523; test: MTT reduction assay, non-tumor fibroblasts; format: cell-based; details: Homo sapiens, AG1523, 48 h incubation, read-out: IC50 ± SEM AG 1523
# Procedure: as §1
# (§3) Cell culture conditions were the same as reported elsewhere. Briefly, cell lines were kept in DMEM containing 10% fetal calf serum. In addition, 100 U/mL of penicillin and 100 µg/mL streptomycin from Gibco (Grand Island, NY, USA) were further added. Cell cultures were kept at 37 °C under an atmosphere of 95% air/5% CO2 and 100% humidity. Sodium L-ascorbate, menadione (vitamin K3), TAM, and 5-FU were purchased from Sigma (St. Louis, MO, USA).
# (§4) The cytotoxicity of the quinones was assessed by following the reduction of MTT (3-(4,5-dimethylthiazol-2-yl)-2,5-diphenyltetrazolium bromide) to formazan blue and the capability of cancer cells to proliferate, namely a clonogenic assay.
# as §2
# DU-145 (prostate) cells [3] = test: MTT reduction assay, DU-145 cells; format: cell-based; details: Homo sapiens, DU-145, 48 h, read-out: IC50 ± SEM DU-145
# Procedure: as §1, §3, §4, §2
# MCF-7 (breast) cells [4] = test: MTT reduction assay, MCF-7 cells; format: cell-based; details: Homo sapiens, MCF7, 48 h incubation, read-out: IC50 ± SEM MCF-7
# Procedure: as §1, §3, §4, §2
# T24 (bladder) cells [5] = test: MTT reduction assay, T24 cells; format: cell-based; details: Homo sapiens, T-24, 48 h incubation, read-out: IC50 ± SEM T24
# Procedure: as §1, §3, §4, §2
# T24 (bladder) cells [6] = test system: T24 (bladder) cells; design: method as in doi:10.1016/j.tetlet.2015.07.034; details: MTT, data from Valderrama et al. ref 16, read-out: IC50 ± SEM T24; cited from earlier work
# MCF-7 (breast) cells [7] = test system: MCF-7 (breast) cells; design: method as in doi:10.1016/j.tetlet.2015.07.034; details: MTT, data from Valderrama et al. ref 16, read-out: IC50 ± SEM MCF-7; cited from earlier work
# DU-145 (prostate) cells [8] = test system: DU-145 (prostate) cells; design: method as in doi:10.1016/j.tetlet.2015.07.034; details: read-out: IC50 ± SEM DU-145, MTT, data from Valderrama et al. ref 16; cited from earlier work
# T24 cells = test: Clonogenic assay; format: cell-based, human; details: for cell growth compared to control conditions (100%), in brackets / number of colony forming units (CFUs): T24 cells; for number of colony forming units (CFUs): 24 h treatment, 10 days growth
# Procedure: Indeed, at a dose of 0.25 µM, it decreased from 195 to 72 the number of CFUs. Otherwise, it inhibits the proliferation of T24 cells by 63% as compared to the control untreated cells. […] The percentages of the observed cell growth compared to control conditions (100%) are indicated in brackets. […] Cells were allowed to adhere overnight, and then treated with quinones for 24 h. Afterward, they were washed with warm PBS, given fresh medium, and allowed to grow for 10 days. Clonogenic survival was determined by fixing and staining colonies using crystal violet and further counting their number. The number of colonies calculated under control conditions was set as 100%.
# [9] = read-out: mean IC50 value calculated from the individual IC50 values of the three cancer cell lines
# [10] = read-out: IC50 values on the panel of cancer cells (range over cell lines)
Compound,IC50 (DU-145 (prostate) cells [3]) [µM],IC50 (MCF-7 (breast) cells [4]) [µM],IC50 (T24 (bladder) cells [5]) [µM],"IC50 [1, 9] [µM]",IC50 [2] [µM],MSI: mean selective index [1],also measured
"O=c1[nH]cc(F)c(=O)[nH]1 [5-Fluorouracil, 5-fluorouracil, reference compound]",–,–,–,7.8,–,–,–
CC1(O)C2=C(N=C3Sc4ccccc4N31)C(=O)c1ccccc1C2=O (centres unmarked) [Compound 11],9.59 ± 0.32,6.83 ± 1.29,4.65 ± 0.43,–,10.7 ± 0.57,1.52,–
CCCC1(O)C2=C(N=C3Sc4ccccc4N31)C(=O)c1ccccc1C2=O (centres unmarked) [Compound 12],–,–,–,–,8.82 ± 0.27,1.28,IC50 (T24 (bladder) cells [6]): 4.86 ± 0.5 µM; IC50 (MCF-7 (breast) cells [7]): 4.25 ± 0.5 µM; IC50 (DU-145 (prostate) cells [8]): 11.6 ± 2.05 µM
CCCCCC1(O)C2=C(N=C3Sc4ccccc4N31)C(=O)c1ccccc1C2=O (centres unmarked) [Compound 13],7.99 ± 0.17,5.83 ± 0.25,6.85 ± 0.54,–,8.55 ± 0.35,1.24,–
CCCCCCCC1(O)C2=C(N=C3Sc4ccccc4N31)C(=O)c1ccccc1C2=O (centres unmarked) [Compound 14],9.04 ± 0.69,6.84 ± 0.79,8.42 ± 1.27,–,7.28 ± 0.39,0.90,–
CCCC1(O)C2=C(N=C3Sc4cc(C)ccc4N31)C(=O)c1ccccc1C2=O (centres unmarked) [Compound 16],–,–,–,1.1 to 1.61,3.46 ± 0.08,2.62,"IC50 (T24 (bladder) cells [6]): 1.36 ± 0.15 µM; IC50 (MCF-7 (breast) cells [7]): 1.77 ± 0.26 µM; IC50 [1, 10]: 0.11 to 1.77 µM; cell growth compared to control conditions (100%), in brackets (T24 cells; 0.025 µM): 101%; number of colony forming units (CFUs) (T24 cells; 0.025 µM): 204 ± 19 CFUs; cell growth compared to control conditions (100%), in brackets (T24 cells; 0.125 µM): 107%; number of colony forming units (CFUs) (T24 cells; 0.125 µM): 216 ± 29 CFUs; cell growth compared to control conditions (100%), in brackets (T24 cells; 0.25 µM): 94%; number of colony forming units (CFUs) (T24 cells; 0.25 µM): 189 ± 12 CFUs; cell growth compared to control conditions (100%), in brackets (T24 cells; 1.25 µM): 39%; number of colony forming units (CFUs) (T24 cells; 1.25 µM): 79 ± 9 CFUs; cell growth compared to control conditions (100%), in brackets (T24 cells; 2.5 µM): 29%; number of colony forming units (CFUs) (T24 cells; 2.5 µM): 58 ± 12 CFUs; cell growth compared to control conditions (100%), in brackets (T24 cells; 5.0 µM): 11%; number of colony forming units (CFUs) (T24 cells; 5.0 µM): 23 ± 15 CFUs; IC50 (DU-145 (prostate) cells [8]): 0.85 ± 0.1 µM"
COc1ccc2c(c1)SC1=NC3=C(C(=O)c4ccccc4C3=O)C(C)(O)N12 (centres unmarked) [Compound 19],–,–,–,1.1 to 1.61,6.4 ± 0.46,3.97,"IC50 (T24 (bladder) cells [6]): 1.32 ± 0.11 µM; IC50 (MCF-7 (breast) cells [7]): 2.72 ± 0.18 µM; IC50 [1, 10]: 0.11 to 1.77 µM; inhibition at 0.25 µM (T24 cells; Homo sapiens, T-24, clonogenic assay, 0.25 µM, read-out: inhibition of the proliferation of T24 cells as compared to control untreated cells): 28%; cell growth compared to control conditions (100%), in brackets (T24 cells; 0.025 µM): 102%; number of colony forming units (CFUs) (T24 cells; 0.025 µM): 195 ± 16 CFUs; cell growth compared to control conditions (100%), in brackets (T24 cells; 0.125 µM): 96%; number of colony forming units (CFUs) (T24 cells; 0.125 µM): 183 ± 21 CFUs; cell growth compared to control conditions (100%), in brackets (T24 cells; 0.25 µM): 72%; number of colony forming units (CFUs) (T24 cells; 0.25 µM): 138 ± 18 CFUs; cell growth compared to control conditions (100%), in brackets (T24 cells; 1.25 µM): 36%; number of colony forming units (CFUs) (T24 cells; 1.25 µM): 68 ± 12 CFUs; cell growth compared to control conditions (100%), in brackets (T24 cells; 2.5 µM): 16%; number of colony forming units (CFUs) (T24 cells; 2.5 µM): 30 ± 16 CFUs; cell growth compared to control conditions (100%), in brackets (T24 cells; 5.0 µM): 18%; number of colony forming units (CFUs) (T24 cells; 5.0 µM): 35 ± 11 CFUs; IC50 (DU-145 (prostate) cells [8]): 0.79 ± 0.11 µM"

# Continued, in another order:
IC50 (DU-145 (prostate) cells [3]) [µM],IC50 (MCF-7 (breast) cells [4]) [µM],IC50 (T24 (bladder) cells [5]) [µM],Compound,"IC50 [1, 9] [µM]",IC50 [2] [µM],MSI: mean selective index [1],also measured
7.55 ± 0.69,7.12 ± 0.65,5.6 ± 0.29,CCCCCCCC1(O)C2=C(N=C3Sc4cc(C)ccc4N31)C(=O)c1ccccc1C2=O (centres unmarked) [Compound 18],–,6.02 ± 0.29,0.89,–
1.13 ± 0.05,1.67 ± 0.12,1.89 ± 0.15,CCCC1(O)C2=C(N=C3Sc4cc(OC)ccc4N31)C(=O)c1ccccc1C2=O (centres unmarked) [Compound 20],1.1 to 1.61,4.99 ± 0.59,3.17,"IC50 [1, 10]: 0.11 to 1.77 µM; cell growth compared to control conditions (100%), in brackets (T24 cells; 0.025 µM): 96%; number of colony forming units (CFUs) (T24 cells; 0.025 µM): 204 ± 17 CFUs; cell growth compared to control conditions (100%), in brackets (T24 cells; 0.125 µM): 100%; number of colony forming units (CFUs) (T24 cells; 0.125 µM): 214 ± 25 CFUs; cell growth compared to control conditions (100%), in brackets (T24 cells; 0.25 µM): 106%; number of colony forming units (CFUs) (T24 cells; 0.25 µM): 225 ± 19 CFUs; cell growth compared to control conditions (100%), in brackets (T24 cells; 1.25 µM): 55%; number of colony forming units (CFUs) (T24 cells; 1.25 µM): 118 ± 22 CFUs; cell growth compared to control conditions (100%), in brackets (T24 cells; 2.5 µM): 42%; number of colony forming units (CFUs) (T24 cells; 2.5 µM): 89 ± 10 CFUs; cell growth compared to control conditions (100%), in brackets (T24 cells; 5.0 µM): 22%; number of colony forming units (CFUs) (T24 cells; 5.0 µM): 46 ± 7 CFUs"
7.43 ± 0.28,4.63 ± 0.3,7.09 ± 0.14,CCCCCC1(O)C2=C(N=C3Sc4cc(OC)ccc4N31)C(=O)c1ccccc1C2=O (centres unmarked) [Compound 21],–,11.3 ± 1.1,1.78,–
6.62 ± 0.19,3.52 ± 0.32,5.95 ± 0.45,CCCCCCCC1(O)C2=C(N=C3Sc4cc(OC)ccc4N31)C(=O)c1ccccc1C2=O (centres unmarked) [Compound 22],–,5.97 ± 0.24,1.11,–
19.9 ± 0.5,8.62 ± 0.72,9.29 ± 0.77,O=C1C2=C(C(=O)c3ccccc31)C(O)(c1ccco1)N1C(=N2)Sc2ccccc21 (centres unmarked) [Compound 23],10.5 to 12.6,21.7 ± 0.27,1.72,–
4.69 ± 0.33,11.7 ± 0.65,10.4 ± 1,COc1ccc2c(c1)SC1=NC3=C(C(=O)c4ccccc4C3=O)C(O)(c3ccco3)N12 (centres unmarked) [Compound 24],–,90.1 ± 1.21,10.1,–
7.85 ± 0.6,7.32 ± 0.36,8.72 ± 0.41,O=C1C2=C(C(=O)c3ccccc31)C(O)(c1cccs1)N1C(=N2)Sc2ccccc21 (centres unmarked) [Compound 25],–,12.8 ± 0.31,1.60,–
10.8 ± 1.01,7.46 ± 0.53,13.4 ± 2.37,O=C1C2=C(C(=O)c3ccccc31)C(O)(c1cccs1)N1C(=N2)Sc2cc(F)ccc21 (centres unmarked) [Compound 26],10.5 to 12.6,19.8 ± 0.83,1.88,–
